Experimental findings from the supplement of paper PMC6045584 are described below.

± gives the standard deviation of the averaged measurements.

Compound in test [1]: COc1cc2nccc(Oc3ccc(NC(=O)C4(C(=O)Nc5ccc(F)cc5)CC4)cc3)c2cc1OC [CABOZANTINIB]
The experiment in a line: surviving fraction relative to DMSO-only wells; higher = less growth inhibition. The note with it: exposure time: 5 days. Put shortly: (§1)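 Continuous five-day exposure to inhibitors at 0.5, 1, 5, 10, 50, 100, 500 and 1000 nM started 24 hours after log-phase tumour cell lines were seeded at 250–500 cells per well in 384-well plates. Luminescence was read after 10 minutes at room temperature. Viability is given as surviving fraction, meaning CellTiter-Glo luminescence normalised to the median of DMSO-only wells.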

Compound in test [2]: C[C@@H]1CN(CC(=O)Nc2ccc3c(c2)Cc2cccc(-c4cc(=O)cc(N5CCOCC5)o4)c2S3)C[C@H](C)O1
Described as above. The settings on record: exposure time: 5 days. Put shortly: as §1

On to HMT3552 BREAST, for which the surviving fraction in test [1] (0.5 nM) came to 1.12 ± 0.044; in test [1] (1 nM), 1.04 ± 0.012; in test [1] (5 nM), 1.02 ± 0.021; in test [1] (10 nM) it was 1.03 ± 0.051; in test [1] (50 nM), 1.21 ± 0.067; in test [1] (100 nM) it was 1.09 ± 0.085. The surviving fraction in test [1] (500 nM) stood at 1.01 ± 0.061; in test [1] (1000 nM), 0.988 ± 0.057; in test [2] (0.5 nM) it was 0.943; in test [2] (1 nM) it was 0.938; in test [2] (5 nM), 0.979; in test [2] (10 nM) it was 1.01. Besides, the surviving fraction came out at 0.942 in test [2] (50 nM), 0.855 in test [2] (100 nM), 0.824 in test [2] (500 nM) and 0.739 in test [2] (1000 nM).
HS578T BREAST: the surviving fraction in test [1] (0.5 nM) turned out to be 0.931 ± 0.14; in test [1] (1 nM) it was 0.97 ± 0.1; in test [1] (5 nM), 0.786 ± 0.087; in test [1] (10 nM), 1.12 ± 0.087; in test [1] (50 nM), 1.04 ± 0.08; in test [1] (100 nM) it was 1.2 ± 0.049. The surviving fraction in test [1] (500 nM) was 1.06 ± 0.075; in test [1] (1000 nM) it was 0.998 ± 0.099; in test [2] (0.5 nM), 0.996 ± 0.12; in test [2] (1 nM) it was 0.965 ± 0.14; in test [2] (5 nM), 0.861 ± 0.04; in test [2] (10 nM) it was 0.883 ± 0.052. For the same test system, the surviving fraction turned out to be 0.855 ± 0.13 in test [2] (50 nM), 0.814 ± 0.13 in test [2] (100 nM), 0.867 ± 0.089 in test [2] (500 nM) and 0.69 ± 0.042 in test [2] (1000 nM).
Regarding G292 BONE, the surviving fraction in test [1] (0.5 nM) was 0.911 ± 0.047; in test [1] (1 nM), 0.977 ± 0.012; in test [1] (5 nM) it was 1.02 ± 0.078; in test [1] (10 nM) it was 1.02 ± 0.046; in test [1] (50 nM) it was 0.925 ± 0.04; in test [1] (100 nM), 0.876 ± 0.021. The surviving fraction in test [1] (500 nM) was found to be 0.76 ± 0.035; in test [1] (1000 nM), 0.722 ± 0.024; in test [2] (0.5 nM) it was 0.9787 ± 0.009; in test [2] (1 nM), 1.03 ± 0.026; in test [2] (5 nM), 0.995 ± 0.026; in test [2] (10 nM), 1 ± 0.046. Also, the surviving fraction in test [2] (50 nM) was found to be 0.994 ± 0.03; in test [2] (100 nM) it was 0.977 ± 0.034; in test [2] (500 nM), 0.856 ± 0.053; in test [2] (1000 nM), 0.764 ± 0.017.
HCC38 BREAST: the surviving fraction in test [1] (0.5 nM) stood at 1.07 ± 0.1; in test [1] (1 nM) it was 1.14 ± 0.12; in test [1] (5 nM), 1.38 ± 0.22; in test [1] (10 nM), 1.34 ± 0.23; in test [1] (50 nM) it was 1.13 ± 0.074; in test [1] (100 nM), 1.24 ± 0.067. Also, the surviving fraction in test [1] (500 nM) was 1.22 ± 0.1; in test [1] (1000 nM), 1.34 ± 0.15; in test [2] (0.5 nM), 0.973 ± 0.15; in test [2] (1 nM), 0.988 ± 0.11; in test [2] (5 nM) it was 1.08 ± 0.19; in test [2] (10 nM) it was 1.02 ± 0.17. Also, the surviving fraction in test [2] (50 nM) came to 0.698 ± 0.23; in test [2] (100 nM), 0.631 ± 0.086; in test [2] (500 nM), 0.418 ± 0.12; in test [2] (1000 nM), 0.391 ± 0.06.
Turning to HMLE3 BREAST, the surviving fraction worked out at 0.925 ± 0.14 in test [1] (0.5 nM); 0.91 ± 0.032 in test [1] (1 nM); 0.98 ± 0.023 in test [1] (5 nM); 0.942 ± 0.08 in test [1] (10 nM); 0.992 ± 0.07 in test [1] (50 nM); 0.91 ± 0.064 in test [1] (100 nM). The surviving fraction is 0.72 ± 0.049 in test [1] (500 nM); 0.656 ± 0.0044 in test [1] (1000 nM); 1 ± 0.041 in test [2] (0.5 nM); 0.914 ± 0.069 in test [2] (1 nM); 0.985 ± 0.082 in test [2] (5 nM); 0.954 ± 0.042 in test [2] (10 nM). Besides, the surviving fraction turned out to be 1 ± 0.058 in test [2] (50 nM), 0.949 ± 0.12 in test [2] (100 nM), 0.918 ± 0.024 in test [2] (500 nM) and 0.807 ± 0.047 in test [2] (1000 nM).
Turning to CCK81 LARGE INTESTINE, the surviving fraction was 0.691 ± 0.07 in test [1] (0.5 nM); 0.837 ± 0.062 in test [1] (1 nM); 0.725 ± 0.12 in test [1] (5 nM); 0.764 ± 0.019 in test [1] (10 nM); 0.704 ± 0.073 in test [1] (50 nM); 0.686 ± 0.075 in test [1] (100 nM). For the same test system, the surviving fraction in test [1] (500 nM) is 0.718 ± 0.12; in test [1] (1000 nM), 0.743 ± 0.08.
Turning to HCC70 BREAST, the surviving fraction in test [1] (0.5 nM) worked out at 0.985 ± 0.1; in test [1] (1 nM), 1.03 ± 0.048; in test [1] (5 nM) it was 1.07 ± 0.11; in test [1] (10 nM), 1.09 ± 0.065; in test [1] (50 nM), 1.04 ± 0.14; in test [1] (100 nM), 1.12 ± 0.045. For the same test system, the surviving fraction is 1.09 ± 0.091 in test [1] (500 nM); 0.99 ± 0.051 in test [1] (1000 nM); 1.03 ± 0.038 in test [2] (0.5 nM); 1.07 ± 0.092 in test [2] (1 nM); 1.1 ± 0.1 in test [2] (5 nM); 1.14 ± 0.07 in test [2] (10 nM). Besides, the surviving fraction was found to be 1.15 ± 0.044 in test [2] (50 nM), 1.2 ± 0.037 in test [2] (100 nM), 1.1 ± 0.041 in test [2] (500 nM) and 1.07 ± 0.02 in test [2] (1000 nM).
